TGI and GI50 data for eight molecules are collected here from PubChem BioAssay (NCI).

Holding throughout (assay): growth of human tumour cells (NCI), 48 h
Experiment [1] concerns MCF7 breast.
For experiment [2], the system named is SN12C renal.
Experiment [3] concerns M14 melanoma.
Experiment [4] relates to SF-295 CNS.
Experiment [5] relates to K-562 leukemia.
The test system of experiment [6] is NCI-H460 lung.
Experiment [7] has as its system LOX IMVI melanoma.
Experiment [8] concerns SF-268 CNS.
Experiment [9] deals with IGROV1 ovarian.
Experiment [10] deals with 786-0 renal.

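Following 48 hours of exposure in 96-well plates, responses at five concentrations were used to interpolate endpoints linearly. Here, GI50 denotes the concentration required for 50% inhibition of growth. TGI: concentration producing complete growth inhibition.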 A value given as a limit tells only on which side of the number the result lay.

In the case of `COc1cccc(/C=C2\CCC(CN(C)C)C2=O)c1` (stereo not drawn), the TGI in experiment [1] amounted to 13.2 µM; in experiment [2] it was 22.8 µM; in [3], 9.62 µM; in experiment [4] it was 30.8 µM; in experiment [5] it was 4.89 µM; in [6], 35 µM. Further, the TGI worked out at 3.51 µM in experiment [7], 33.5 µM in experiment [8], 23.4 µM in experiment [9] and 8.57 µM in experiment [10].
As for `CCCCCN(CCCCC)CCC[C@@H](C)[C@H]1CC[C@H]2[C@@H]3[C@H](OCCCN)C[C@@H]4C[C@H](OCCCN)CC[C@]4(C)[C@H]3C[C@H](OCCCN)[C@]12C`, the GI50 was 14.5 µM in experiment [1]; 4.33 µM in [2]; 6.03 µM in experiment [3]; 3.03 µM in experiment [4]; 1.84 µM in experiment [5]; 2.79 µM in [6]. In addition, the GI50 is 2.16 µM in [7], 13.6 µM in experiment [8], 2.72 µM in experiment [9] and 8.26 µM in experiment [10]. The TGI in [1] was 34.7 µM; in [2], 18.8 µM; in [3], 22.5 µM; in experiment [4] it was 21.8 µM; in [5], 4.33 µM; in experiment [6], 17.3 µM. In addition, the TGI in [7] was 10.2 µM; in experiment [8] it was 31.5 µM; in [9], 15 µM; in experiment [10], 24 µM.
Turning to `COc1ccc(Nc2ncc(I)c(NCCCNC(=O)C3CCC3)n2)cc1`, the GI50 in [1] was 8.31 µM; in experiment [2] it was 1.46 µM; in experiment [3], 13.4 µM; in experiment [4], 3.5 µM; in experiment [5] it was 8.99 µM; in experiment [6] it was 5.19 µM. Moreover, the GI50 in experiment [7] is 1.66 µM; in experiment [8] it was 2.01 µM; in experiment [9], 2.39 µM; in experiment [10] it was 5.58 µM. Also, the TGI in [1] was greater than 100 µM; in experiment [2] it was greater than 100 µM; in experiment [3], greater than 100 µM; in [4] it was greater than 100 µM; in experiment [5], greater than 100 µM; in experiment [6], 36.8 µM. Further, the TGI in experiment [7] is 13.6 µM; in [8] it was 29.9 µM; in [9] it was 16.6 µM; in [10] it was 29.2 µM.
As to `O=c1[nH]c(-c2ccc(Cl)c(Cl)c2)cn1-c1ccc(Cl)cc1`, the GI50 was 56.3 µM in [1]; 26.7 µM in experiment [2]; 29.7 µM in experiment [3]; 25 µM in experiment [4]; 21.5 µM in experiment [5]; 22.3 µM in experiment [6]. Besides, the GI50 in [7] is 36.2 µM; in experiment [8], 21.6 µM; in experiment [9], 22.6 µM; in [10], 20.7 µM. Further, the TGI in experiment [1] is greater than 100 µM; in experiment [2], greater than 100 µM; in experiment [3], greater than 100 µM; in [4] it was 64 µM; in [5], 46.9 µM; in [6] it was 52.2 µM. Also, the TGI is greater than 100 µM in experiment [7], 59.3 µM in experiment [8], 79.5 µM in [9] and 43.9 µM in [10].
On to `COc1ccc(OC)c(N2CC(O)=C(c3nc4ccccc4s3)C2=N)c1`, for which the GI50 in experiment [1] is 60.8 µM; in experiment [2], 58 µM; in [3], greater than 100 µM; in experiment [4], 60.9 µM; in [5] it was 23.6 µM; in [6], 63 µM. Besides, the GI50 was 45.4 µM in experiment [7], greater than 100 µM in [8], 33.1 µM in experiment [9] and greater than 100 µM in [10]. Also, the TGI in experiment [1], in [2], in experiment [3], in experiment [4], in experiment [5] and in experiment [6] was greater than 100 µM each time. Moreover, the TGI in experiment [7], in experiment [8], in [9] and in experiment [10] was greater than 100 µM in each case.
Consider `COc1cc2c(cc1OC)[C@@H]1C(=O)c3ccc4c(c3O[C@@H]1CO2)C[C@H](C(C)C)O4`, for which the GI50 was 2.66 µM in [1]; 10.6 µM in [2]; 7.86 µM in experiment [3]; 0.294 µM in experiment [4]; 0.521 µM in experiment [5]; 4.33 µM in [6]. In addition, the GI50 in experiment [7] was 0.264 µM; in experiment [8], 11.7 µM; in [9], 14.2 µM; in [10] it was 5.6 µM. The TGI was greater than 52.2 µM in experiment [1]; greater than 76.8 µM in experiment [2]; greater than 59.4 µM in experiment [3]; greater than 41.4 µM in experiment [5]; 45.8 µM in experiment [6]; greater than 62.2 µM in experiment [8]. Moreover, the values for the TGI in [9] and in experiment [10] were greater than 85.5 µM and greater than 79.8 µM, respectively.
With `COc1ccc(C2c3ccc4ccccc4c3Oc3ncn(CCCn4ccnc4)c(=N)c32)cc1OC` (stereo not drawn), the GI50 is 3.11 µM in [1]; 3.64 µM in experiment [2]; 1.98 µM in experiment [3]; 4.35 µM in [4]; 2.07 µM in experiment [5]; 3.65 µM in [6]. The GI50 in experiment [7] was 1.88 µM; in experiment [8] it was 3.52 µM; in experiment [9], 6.04 µM; in [10], 3.1 µM. For the same molecule, the TGI in experiment [1] came out at 12.3 µM; in [2] it was 17.7 µM; in experiment [3], 3.83 µM; in experiment [4] it was 19.9 µM; in experiment [5], 4.54 µM; in experiment [6], 13.2 µM. The TGI turned out to be 3.7 µM in experiment [7], 13.8 µM in experiment [8], 21.8 µM in [9] and 11 µM in experiment [10].
As for `COc1ccc2c(n1)Sc1nc3ccccc3nc1N2`, the TGI was greater than 100 µM in experiment [1]; 71.6 µM in experiment [2]; greater than 100 µM in experiment [3]; greater than 100 µM in experiment [4]; greater than 100 µM in experiment [5]; greater than 100 µM in experiment [6]. In addition, the TGI in experiment [7], in experiment [8], in [9] and in experiment [10] was greater than 100 µM in each case.
